Data as given in PubChem BioAssay AID330 (DTP/NCI, 2004).
Several values for one entry are separate records, joined by “and”; a condition that tells them apart may be missing. Equal entries are not always repeated. Toxic doses and inconclusive results are not listed.

Test system: P388 leukemia ip, CD2F1 mice, survival T/C
Assay: NCI In Vivo Anticancer Drug Screen. Data for tumor model P388 Leukemia (intraperitoneal) in CD2F1 (CDF1) mice
Conditions: endpoint: median survival time, higher = longer survival
Summary of the method: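 Mice carrying the transplanted tumor received test compound or vehicle. Survival was recorded in each group, and the value is the treated-group measurement divided by that of the vehicle-treated control group.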

[1] = dose: 50.0 mg/kg/injection, schedule: Q01DX009 (ip), vehicle: saline
[2] = dose: 100.0 mg/kg/injection, schedule: Q01DX009 (ip), vehicle: saline
[3] = dose: 200.0 mg/kg/injection, schedule: Q01DX009 (ip), vehicle: saline
[4] = dose: 100.0 mg/kg/injection, schedule: Q04DX003 (ip), vehicle: Klucel (hydroxypropylcellulose) (HPC)
[5] = dose: 200.0 mg/kg/injection, schedule: Q04DX003 (ip), vehicle: Klucel (hydroxypropylcellulose) (HPC)
[6] = dose: 25.0 mg/kg/injection, schedule: Q01DX009 (ip), vehicle: saline with Tween-80
[7] = dose: 50.0 mg/kg/injection, schedule: Q01DX009 (ip), vehicle: saline with Tween-80
[8] = dose: 50.0 mg/kg/injection, schedule: Q01DX005 (ip), vehicle: Klucel (hydroxypropylcellulose) (HPC)
[9] = dose: 100.0 mg/kg/injection, schedule: Q01DX005 (ip), vehicle: Klucel (hydroxypropylcellulose) (HPC)
[10] = dose: 200.0 mg/kg/injection, schedule: Q01DX005 (ip), vehicle: Klucel (hydroxypropylcellulose) (HPC)
[11] = dose: 60.0 mg/kg/injection, schedule: Q01DX005 (ip), vehicle: saline with Tween-80
[12] = dose: 120.0 mg/kg/injection, schedule: Q01DX005 (ip), vehicle: saline with Tween-80
[13] = dose: 240.0 mg/kg/injection, schedule: Q01DX005 (ip), vehicle: saline with Tween-80
[14] = dose: 25.0 mg/kg/injection, schedule: Q01DX009 (ip), vehicle: Klucel (hydroxypropylcellulose) (HPC)
[15] = dose: 50.0 mg/kg/injection, schedule: Q01DX009 (ip), vehicle: Klucel (hydroxypropylcellulose) (HPC)
[16] = dose: 100.0 mg/kg/injection, schedule: Q01DX009 (ip), vehicle: Klucel (hydroxypropylcellulose) (HPC)
[17] = dose: 200.0 mg/kg/injection, schedule: Q01DX009 (ip), vehicle: Klucel (hydroxypropylcellulose) (HPC)

With `CC1(C)CC2C3=CCC4C5(C)CCC(O)C(C)(C)C5CCC4(C)C3(C)CCC2(CO)C(O)C1O` (stereo not given) the T/C (dose: 3.25 mg/kg/injection, schedule: Q01DX005 (ip), vehicle: Klucel (hydroxypropylcellulose) (HPC)) was 99 % of control, the T/C (dose: 6.5 mg/kg/injection, schedule: Q01DX005 (ip), vehicle: Klucel (hydroxypropylcellulose) (HPC)) was 99 % of control and the T/C (dose: 13.0 mg/kg/injection, schedule: Q01DX005 (ip), vehicle: Klucel (hydroxypropylcellulose) (HPC)) was 99 % of control. The T/C (dose: 26.0 mg/kg/injection, schedule: Q01DX005 (ip), vehicle: Klucel (hydroxypropylcellulose) (HPC)) was 98 % of control.
With `O=NNc1ccc(C(=O)O)cn1` the T/C (dose: 3.12 mg/kg/injection, schedule: Q01DX009 (ip), vehicle: saline) was 108 % of control, the T/C (dose: 6.25 mg/kg/injection, schedule: Q01DX009 (ip), vehicle: saline) was 100 % of control and the T/C (dose: 12.5 mg/kg/injection, schedule: Q01DX009 (ip), vehicle: saline) was 106 % of control. The T/C (dose: 25.0 mg/kg/injection, schedule: Q01DX009 (ip), vehicle: saline) was 97 % of control, the T/C [1] was 100 % of control and the T/C [2] was 91 % of control. The T/C [3] was 110 % of control.
With `c1ccc(P23(Oc4ccccc4S2)Oc2ccccc2S3)cc1` the T/C [4] was 93 % of control, the T/C [5] was 90 % of control and the T/C (dose: 400.0 mg/kg/injection, schedule: Q04DX003 (ip), vehicle: Klucel (hydroxypropylcellulose) (HPC)) was 91 % of control.
In the case of `CN(C)c1ccc(C(C#N)C(C#N)c2ccccc2)cc1` (stereo not given), the T/C (dose: 6.25 mg/kg/injection, schedule: Q01DX009 (ip), vehicle: saline with Tween-80) is reported as 94 % of control, the T/C (dose: 12.5 mg/kg/injection, schedule: Q01DX009 (ip), vehicle: saline with Tween-80) is reported as 94 % of control and the T/C [6] is reported as 103 % of control. The T/C [7] was 100 % of control.
With `C[CH2][Ge]([CH2]C)[CH2]C.C[CH2][Ge]([CH2]C)[CH2]C(=O)OC` the T/C [8] was 99 % of control, the T/C [9] was 100 % of control and the T/C [10] was 100 % of control.
For `O=C(O)C1[S][Sb]([CH](C(=O)O)[CH](C(=O)O)[Sb]2[S]C(C(=O)O)C(C(=O)O)[S]2)[S]C1C(=O)O` (stereo not given), the T/C [1] was 100 % of control, the T/C [2] was 98 % of control and the T/C [3] was 108 % of control.
In the case of `c1ccc(N=NC2=NN(c3ccccc3)CCS2)cc1`, the T/C [6] is reported as 102 % of control and 107 % of control, the T/C [7] is reported as 102 % of control and 116 % of control and the T/C (dose: 100.0 mg/kg/injection, schedule: Q01DX009 (ip), vehicle: saline with Tween-80) is reported as 101 % of control and 107 % of control. The T/C (dose: 200.0 mg/kg/injection, schedule: Q01DX009 (ip), vehicle: saline with Tween-80) was 100 % of control and 110 % of control.
`COC1=CCC(CCNC(=O)c2cc3c(cc2[N+](=O)[O-])OCO3)=CC1` was tested, and the T/C [11] was 101 % of control, the T/C [12] was 93 % of control and the T/C [13] was 98 % of control.
With `Nc1cc2nc3ccccc3nc2cc1N` the T/C (dose: 25.0 mg/kg/injection, schedule: Q01DX005 (ip), vehicle: saline with Tween-80) was 91 % of control and the T/C (dose: 50.0 mg/kg/injection, schedule: Q01DX005 (ip), vehicle: saline with Tween-80) was 90 % of control.
In the case of `Nc1nc(N)c(NS(=O)(=O)c2ccccc2)c(=O)[nH]1`, the T/C [11] is reported as 108 % of control, the T/C [12] is reported as 100 % of control and the T/C [13] is reported as 105 % of control.
With `COC1=C(C#N)C(c2ccccc2)CC(N)=N1` (stereo not given) the T/C (dose: 60.0 mg/kg/injection, schedule: Q01DX005 (ip), vehicle: Klucel (hydroxypropylcellulose) (HPC)) was 112 % of control and the T/C (dose: 120.0 mg/kg/injection, schedule: Q01DX005 (ip), vehicle: Klucel (hydroxypropylcellulose) (HPC)) was 94 % of control.
For `Clc1cccc(N(C2=NCCS2)C2=NCCS2)c1`, the T/C [14] was 107 % of control, the T/C [15] was 104 % of control and the T/C [16] was 107 % of control. The T/C [17] was 104 % of control.
`N#C/C(=C/c1cccs1)c1ccc(Cl)cc1` was tested, and the T/C [4] was 109 % of control and the T/C [5] was 99 % of control.
In the case of `O=[N+]([O-])c1cccc(N/N=C\c2c(Cl)[nH]c3ccccc23)c1`, the T/C (dose: 12.5 mg/kg/injection, schedule: Q01DX001 (ip), vehicle: Klucel (hydroxypropylcellulose) (HPC)) is reported as 102 % of control, the T/C (dose: 25.0 mg/kg/injection, schedule: Q01DX001 (ip), vehicle: Klucel (hydroxypropylcellulose) (HPC)) is reported as 93 % of control and the T/C (dose: 50.0 mg/kg/injection, schedule: Q01DX001 (ip), vehicle: Klucel (hydroxypropylcellulose) (HPC)) is reported as 89 % of control. For the same compound, the T/C (dose: 100.0 mg/kg/injection, schedule: Q01DX001 (ip), vehicle: Klucel (hydroxypropylcellulose) (HPC)) was 86 % of control.
For `CCc1nc(N)nc(N)c1-c1ccc(NCCc2ccccc2)c([N+](=O)[O-])c1`, the T/C [8] was 101 % of control, the T/C [9] was 113 % of control and 124 % of control and the T/C [10] was 162 % of control. The T/C (dose: 400.0 mg/kg/injection, schedule: Q01DX005 (ip), vehicle: Klucel (hydroxypropylcellulose) (HPC)) was 98 % of control.
In the case of `O=C(Cc1ccccc1)c1ccc(F)cc1`, the T/C [15] is reported as 98 % of control, the T/C [16] is reported as 100 % of control and the T/C [17] is reported as 99 % of control.
With `Clc1ccc(N=Cc2ccc(C=Nc3ccc(Cl)cc3)cc2)cc1` the T/C (dose: 6.25 mg/kg/injection, schedule: Q01DX009 (ip), vehicle: Klucel (hydroxypropylcellulose) (HPC)) was 94 % of control, the T/C (dose: 12.5 mg/kg/injection, schedule: Q01DX009 (ip), vehicle: Klucel (hydroxypropylcellulose) (HPC)) was 91 % of control and the T/C [14] was 94 % of control.
In the case of `CC1CN1CC(O)C(O)CN1CC1C` (stereo not given), the T/C (dose: 0.01 mg/kg/injection, schedule: Q04DX003 (ip), vehicle: saline) is reported as 109 % of control, the T/C (dose: 0.02 mg/kg/injection, schedule: Q04DX003 (ip), vehicle: saline) is reported as 104 % of control and the T/C (dose: 0.15 mg/kg/injection, schedule: Q04DX003 (ip), vehicle: saline) is reported as 160 % of control. The T/C (dose: 0.3 mg/kg/injection, schedule: Q04DX003 (ip), vehicle: saline) was 170 % of control, the T/C (dose: 0.5 mg/kg/injection, schedule: Q04DX003 (ip), vehicle: saline) was 160 % of control and the T/C (dose: 0.6 mg/kg/injection, schedule: Q04DX003 (ip), vehicle: saline) was 170 % of control. For the same compound, the T/C (dose: 0.62 mg/kg/injection, schedule: Q04DX003 (ip), vehicle: saline) was 154 % of control, the T/C (dose: 1.0 mg/kg/injection, schedule: Q04DX003 (ip), vehicle: saline) was 185 % of control and the T/C (dose: 1.25 mg/kg/injection, schedule: Q01DX009 (ip), vehicle: saline with Tween-80) was 272 % of control. The T/C (dose: 1.25 mg/kg/injection, schedule: Q04DX003 (ip), vehicle: saline) was 163 % of control, the T/C (dose: 2.0 mg/kg/injection, schedule: Q04DX003 (ip), vehicle: saline) was 240 % of control and the T/C (dose: 2.5 mg/kg/injection, schedule: Q01DX009 (ip), vehicle: saline with Tween-80) was 95 % of control. For the same compound, the T/C (dose: 2.5 mg/kg/injection, schedule: Q01DX009 (ip), vehicle: saline) was 222 % of control, the T/C (dose: 2.5 mg/kg/injection, schedule: Q04DX003 (ip), vehicle: saline) was 222 % of control and the T/C (dose: 3.0 mg/kg/injection, schedule: Q04DX003 (ip), vehicle: saline) was 172 % of control. The T/C (dose: 3.3 mg/kg/injection, schedule: Q04DX003 (ip), vehicle: saline) was 212 % of control, the T/C (dose: 5.0 mg/kg/injection, schedule: Q01DX009 (ip), vehicle: saline) was 122 % of control and the T/C (dose: 5.0 mg/kg/injection, schedule: Q04DX003 (ip), vehicle: saline) was 231 % of control and 183 % of control and 230 % of control. The T/C (dose: 6.0 mg/kg/injection, schedule: Q04DX003 (ip), vehicle: saline) was 268 % of control, the T/C (dose: 7.5 mg/kg/injection, schedule: Q04DX003 (ip), vehicle: saline) was 272 % of control and the T/C (dose: 10.0 mg/kg/injection, schedule: Q04DX003 (ip), vehicle: saline) was 268 % of control. For the same compound, the T/C (dose: 63.0 micrograms/kg/injection, schedule: Q04DX003 (ip), vehicle: saline) was 100 % of control, the T/C (dose: 125.0 micrograms/kg/injection, schedule: Q04DX003 (ip), vehicle: saline) was 100 % of control and the T/C (dose: 250.0 micrograms/kg/injection, schedule: Q04DX003 (ip), vehicle: saline) was 104 % of control.
In the case of `O=C(O)CCc1c(-c2ccccc2)[nH]c2ccccc12`, the T/C (dose: 60.0 mg/kg/injection, schedule: Q01DX005 (ip), vehicle: Klucel + Tween-80) is reported as 100 % of control, the T/C (dose: 120.0 mg/kg/injection, schedule: Q01DX005 (ip), vehicle: Klucel + Tween-80) is reported as 100 % of control and the T/C (dose: 240.0 mg/kg/injection, schedule: Q01DX005 (ip), vehicle: Klucel + Tween-80) is reported as 100 % of control.
